Experimental data as given in patent US20130065818A1, “Arylamide Compounds And Compositions And Uses Thereof” (POLYMEDIX, priority 2006, published 2013).
Converted amounts (≈) assume the structure as drawn. Where two headings read alike, the source gives them in different places.

Columns and labels:
[1] = test system: Staphylococcus epidermidis (Coagulase-negative Staphylococcus) fluoroquinolone-resistant; experiment: MIC, 25 ocular isolates, broth microdilution (Example 8); format: cell-based
Experimental: (§1) • Mueller-Hinton Broth in tubes was inoculated with 25 ocular isolates of Staphylococcus aureus fluoroquinolone-susceptible, Staphylococcus aureus fluoroquinolone-resistant, Staphylococcus epidermidis (Coagulase-negative Staphylococcus) fluoroquinolone-susceptible, Staphylococcus epidermidis (Coagulase-negative Staphylococcus) fluoroquinolone-resistant, Pseudomonas aeruginosa and Serratia marcescens, plus two controls (Staphylococcus aureus and E. coli) and incubated at 37° C. overnight on a shaker set at 250 rpm.
(§2) On the day of testing, a 640 μg/ml (1280 μg/ml for Serratia marcescens and Pseudomonas aeruginosa) concentration was prepared from a 1% stock solution in 0.01% acetic acid, 0.2% BSA in polypropylene tubes.
(§3) Serial doubling dilutions in 0.01% acetic acid, 0.2% BSA in 96 well polypropylene plates, which are used as reservoirs for the inoculation of the test plates, were carried out to obtain serial dilutions of test agents at 10 times the required test concentrations: 640, 320, 160, 80, 40, 20, 10, 5, 2.5, 1.25, and 0.625 μg/ml (1280, 640, 320, 160, 80, 40, 20, 10, 5, 2.5, and 1.25 μg/ml for Serratia marcescens and Pseudomonas aeruginosa).
(§4) Ten μl of diluted 10×test agents was added to each well of one row of the 96 well polypropylene plates from column 2 to column 12 (column 1 is a control for bacteria alone, with no peptide). Test agent concentrations in columns 2-12 were as follows: 64, 32, 16, 8, 4, 2, 1, 0.5, 0.25, 0.125, and 0.0625 μg/ml (128, 64, 32, 16, 8, 4, 2, 1, 0.5, 0.25, and 0.125 μg/ml for Serratia marcescens and Pseudomonas aeruginosa). The same peptide was in each of the 8 rows. One plate contained dilutions of one test agent and 8 bacterial isolates.
(§5) On the day of testing, the overnight bacterial broth cultures of Staphylococcus aureus fluoroquinolone-susceptible, Staphylococcus aureus fluoroquinolone-resistant, Staphylococcus epidermidis (Coagulase-negative Staphylococcus) fluoroquinolone-susceptible, Staphylococcus epidermidis (Coagulase-negative Staphylococcus) fluoroquinolone-resistant, Serratia marcescens, and Pseudomonas aeruginosa, plus two controls (Staphylococcus aureus and E. coli) were diluted in 5 ml of trypticase soy broth to yield turbidity equal to a 0.5 McFarland standard. The final inoculum for MIC testing for Staphylococcus aureus fluoroquinolone-susceptible, Staphylococcus aureus fluoroquinolone-resistant, Staphylococcus epidermidis (Coagulase-negative Staphylococcus) fluoroquinolone-susceptible, Staphylococcus epidermidis (Coagulase-negative Staphylococcus) fluoroquinolone-resistant, Serratia marcescens, and Pseudomonas aeruginosa was achieved by placing 0.05 ml of the turbidity adjusted sample to 5 ml of Mueller-Hinton broth.
(§6) Ninety μl of the bacterial suspensions was dispensed in each well from column 1 to column 12. Each bacterial isolate was placed in one row of a 96 well polypropylene plate containing the test agents. The plates were placed on shaker at 15 minutes at room temperature, and then incubated at 37° C. overnight. MICs were determined visually as the lowest concentration of drug that inhibits visible bacterial growth.

[2] = test system: Staphylococcus aureus fluoroquinolone-resistant; experiment: as above; format: cell-based
Experimental: as §1, §2, §3, §4, §5, §6

Structure (SMILES): N=C(N)NCCCCC(=O)Nc1cc(C(F)(F)F)cc(NC(=O)c2cnc(C(=O)Nc3cc(C(F)(F)F)cc(NC(=O)CCCCNC(=N)N)c3SCCN)cn2)c1SCCN [Oligomer 5]
- MIC50 ([1]; 25 isolates, Row 13): 0.125 µg/mL (≈ 0.136 µM)
- MIC90 ([1]; 25 isolates, Row 22): 0.25 µg/mL (≈ 0.273 µM)
- Range of MICs ([1]; 25 isolates, Summary of Results, <0.0625 was Replaced with 0.03125): 0.03125 to 0.5 µg/mL
- MIC ([1]; Staphylococcus epidermidis, 25 ocular isolates, read-out: Median MIC): ≤ 0.25 µg/mL
- MIC ([1]; Staphylococcus epidermidis, isolate 1—E515, read-out: MIC): 0.125 µg/mL (≈ 0.136 µM)
- MIC ([1]; Staphylococcus epidermidis, isolate 2—E514, read-out: MIC): 0.125 µg/mL (≈ 0.136 µM)
- MIC ([1]; Staphylococcus epidermidis, isolate 3—E513, read-out: MIC): 0.125 µg/mL (≈ 0.136 µM)
- MIC ([1]; Staphylococcus epidermidis, isolate 4—E510, read-out: MIC): 0.125 µg/mL (≈ 0.136 µM)
- MIC ([1]; Staphylococcus epidermidis, isolate 5—E509, read-out: MIC): 0.125 µg/mL (≈ 0.136 µM)
- MIC ([1]; Staphylococcus epidermidis, isolate 6—E508, read-out: MIC): 0.125 µg/mL (≈ 0.136 µM)
- MIC ([1]; Staphylococcus epidermidis, isolate 7—E505, read-out: MIC): 0.125 µg/mL (≈ 0.136 µM)
- MIC ([1]; Staphylococcus epidermidis, isolate 8—E503, read-out: MIC): 0.125 µg/mL (≈ 0.136 µM)
- MIC ([1]; Staphylococcus epidermidis, isolate 9—E502, read-out: MIC): 0.25 µg/mL (≈ 0.273 µM)
- MIC ([1]; Staphylococcus epidermidis, isolate 10—E499, read-out: MIC): 0.25 µg/mL (≈ 0.273 µM)
- MIC ([1]; Staphylococcus epidermidis, isolate 11—E498, read-out: MIC): 0.125 µg/mL (≈ 0.136 µM)
- MIC ([1]; Staphylococcus epidermidis, isolate 12—E494, read-out: MIC): 0.125 µg/mL (≈ 0.136 µM)
- MIC ([1]; Staphylococcus epidermidis, isolate 13—E493, read-out: MIC): 0.125 µg/mL (≈ 0.136 µM)
- MIC ([1]; Staphylococcus epidermidis, isolate 14—E485, read-out: MIC): 0.125 µg/mL (≈ 0.136 µM)
- MIC ([1]; Staphylococcus epidermidis, isolate 15—E487, read-out: MIC): < 0.0625 µg/mL
- MIC ([1]; Staphylococcus epidermidis, isolate 16—E486, read-out: MIC): 0.125 µg/mL (≈ 0.136 µM)
- MIC ([1]; Staphylococcus epidermidis, isolate 17—E480, read-out: MIC): 0.125 µg/mL (≈ 0.136 µM)
- MIC ([1]; Staphylococcus epidermidis, isolate 18—E475, read-out: MIC): 0.125 µg/mL (≈ 0.136 µM)
- MIC ([1]; Staphylococcus epidermidis, isolate 19—E471, read-out: MIC): 0.125 µg/mL (≈ 0.136 µM)
- MIC ([1]; Staphylococcus epidermidis, isolate 20—E458, read-out: MIC): 0.125 µg/mL (≈ 0.136 µM)
- MIC ([1]; Staphylococcus epidermidis, isolate 21—E452, read-out: MIC): 0.5 µg/mL (≈ 0.545 µM)
- MIC ([1]; Staphylococcus epidermidis, isolate 22—E450, read-out: MIC): 0.125 µg/mL (≈ 0.136 µM)
- MIC ([1]; Staphylococcus epidermidis, isolate 23—E440, read-out: MIC): 0.125 µg/mL (≈ 0.136 µM)
- MIC ([1]; Staphylococcus epidermidis, isolate 24—E446, read-out: MIC): < 0.0625 µg/mL
- MIC ([1]; Staphylococcus epidermidis, isolate 25—E444, read-out: MIC): 0.25 µg/mL (≈ 0.273 µM)
- MIC ([1]; Staphylococcus epidermidis, n=25 per group, read-out: Median MIC): 0.125 µg/mL (≈ 0.136 µM)
- MIC50 ([1]; Staphylococcus epidermidis, 25 isolates, Summary of Results, read-out: MIC50): 0.125 µg/mL (≈ 0.136 µM)
- MIC90 ([1]; Staphylococcus epidermidis, 25 isolates, Summary of Results, read-out: MIC90): 0.25 µg/mL (≈ 0.273 µM)
- MIC ([1]; Staphylococcus epidermidis, 25 isolates, Summary of Results, read-out: Median MIC): 0.125 µg/mL (≈ 0.136 µM)
- MIC50 ([1]; n=25 per group): 0.125 µg/mL (≈ 0.136 µM)
- MIC90 ([1]; n=25 per group): 0.25 µg/mL (≈ 0.273 µM)
- Range of MICs ([1]; n=25 per group): 0.03125 to 0.5 µg/mL
- MIC50 ([2]; 25 isolates, Row 13): 0.25 µg/mL (≈ 0.273 µM)
- MIC90 ([2]; 25 isolates, Row 22): 0.5 µg/mL (≈ 0.545 µM)
- Range of MICs ([2]; 25 isolates, Summary of Results): 0.125 to 0.5 µg/mL
- MIC ([2]; Staphylococcus aureus, 25 ocular isolates, read-out: Median MIC): ≤ 0.25 µg/mL
- MIC ([2]; Staphylococcus aureus, isolate 1—E504, read-out: MIC): 0.5 µg/mL (≈ 0.545 µM)
- MIC ([2]; Staphylococcus aureus, isolate 2—E475, read-out: MIC): 0.25 µg/mL (≈ 0.273 µM)
- MIC ([2]; Staphylococcus aureus, isolate 3—E442, read-out: MIC): 0.25 µg/mL (≈ 0.273 µM)
- MIC ([2]; Staphylococcus aureus, isolate 4—E427, read-out: MIC): 0.5 µg/mL (≈ 0.545 µM)
- MIC ([2]; Staphylococcus aureus, isolate 5—E425, read-out: MIC): 0.25 µg/mL (≈ 0.273 µM)
- MIC ([2]; Staphylococcus aureus, isolate 6—E424, read-out: MIC): 0.25 µg/mL (≈ 0.273 µM)
- MIC ([2]; Staphylococcus aureus, isolate 7—E417, read-out: MIC): 0.25 µg/mL (≈ 0.273 µM)
- MIC ([2]; Staphylococcus aureus, isolate 8—E407, read-out: MIC): 0.125 µg/mL (≈ 0.136 µM)
- MIC ([2]; Staphylococcus aureus, isolate 9—E401, read-out: MIC): 0.25 µg/mL (≈ 0.273 µM)
- MIC ([2]; Staphylococcus aureus, isolate 10—K1659, read-out: MIC): 0.25 µg/mL (≈ 0.273 µM)
- MIC ([2]; Staphylococcus aureus, isolate 11—E96, read-out: MIC): 0.25 µg/mL (≈ 0.273 µM)
- MIC ([2]; Staphylococcus aureus, isolate 12—E379, read-out: MIC): 0.5 µg/mL (≈ 0.545 µM)
- MIC ([2]; Staphylococcus aureus, isolate 13—E369, read-out: MIC): 0.5 µg/mL (≈ 0.545 µM)
- MIC ([2]; Staphylococcus aureus, isolate 14—E361, read-out: MIC): 0.25 µg/mL (≈ 0.273 µM)
- MIC ([2]; Staphylococcus aureus, isolate 15—E339, read-out: MIC): 0.25 µg/mL (≈ 0.273 µM)
- MIC ([2]; Staphylococcus aureus, isolate 16—E333, read-out: MIC): 0.125 µg/mL (≈ 0.136 µM)
- MIC ([2]; Staphylococcus aureus, isolate 17—E332, read-out: MIC): 0.25 µg/mL (≈ 0.273 µM)
- MIC ([2]; Staphylococcus aureus, isolate 18—E327, read-out: MIC): 0.25 µg/mL (≈ 0.273 µM)
- MIC ([2]; Staphylococcus aureus, isolate 19—E325, read-out: MIC): 0.25 µg/mL (≈ 0.273 µM)
- MIC ([2]; Staphylococcus aureus, isolate 20—K950, read-out: MIC): 0.25 µg/mL (≈ 0.273 µM)
- MIC ([2]; Staphylococcus aureus, isolate 21—K839, read-out: MIC): 0.25 µg/mL (≈ 0.273 µM)
- MIC ([2]; Staphylococcus aureus, isolate 22—K1679, read-out: MIC): 0.25 µg/mL (≈ 0.273 µM)
- MIC ([2]; Staphylococcus aureus, isolate 23—K1677, read-out: MIC): 0.5 µg/mL (≈ 0.545 µM)
- MIC ([2]; Staphylococcus aureus, isolate 24—K1672, read-out: MIC): 0.25 µg/mL (≈ 0.273 µM)
- MIC ([2]; Staphylococcus aureus, isolate 25—K1670, read-out: MIC): 0.25 µg/mL (≈ 0.273 µM)
- MIC ([2]; Staphylococcus aureus, n=25 per group, read-out: Median MIC): 0.25 µg/mL (≈ 0.273 µM)
- MIC50 ([2]; Staphylococcus aureus, 25 isolates, Summary of Results, read-out: MIC50): 0.25 µg/mL (≈ 0.273 µM)
- MIC90 ([2]; Staphylococcus aureus, 25 isolates, Summary of Results, read-out: MIC90): 0.5 µg/mL (≈ 0.545 µM)
- MIC ([2]; Staphylococcus aureus, 25 isolates, Summary of Results, read-out: Median MIC): 0.25 µg/mL (≈ 0.273 µM)
- MIC50 ([2]; n=25 per group): 0.25 µg/mL (≈ 0.273 µM)
- MIC90 ([2]; n=25 per group): 0.5 µg/mL (≈ 0.545 µM)
- Range of MICs ([2]; n=25 per group): 0.125 to 0.5 µg/mL
